# Laboratory results from patent US11298347B2, “Methods of diagnosing and treating Tourette syndrome” (THE CHILDREN'S HOSPITAL OF PHILADELPHIA, priority 2015, dated 2022).
# Tests used:
# [1] = cited from earlier work
# [2] = open-label Phase Ib clinical trial of NFC-1 in adolescent ADHD subjects with a genetic alteration in an mGluR network gene; assay type: in vivo, human
# Method: An open-label Phase Ib clinical trial was conducted to investigate the safety, pharmacokinetics and efficacy of NFC-1 (fasoracetam monohydrate) in adolescent subjects between the ages of 12 and 17 previously diagnosed with ADHD who also had at least one genetic alteration in an mGluR network gene.
# The study included 30 ADHD subjects who were between ages 12 and 17, of any ancestry or race, of weight within the 5th to 95th percentile for their age, and otherwise judged to be in good medical health. […] Seventeen of the 30 subjects have a CNV in a tier 1 mGluR network gene, while 7 subjects have a CNV in a tier 2 gene and 6 in a tier 3 gene.
# Exclusion criteria comprised subjects suffering from a clinically significant illness, either mental or physical, that, in the investigator's opinion, might confound the results of the study or that might prevent them from completing the study, subjects that are pregnant or nursing, subjects that test positive for illicit drugs of that have a history of drug abuse, subjects that consume alcoholic beverages, or subjects for which the investigator is otherwise concerned regarding their compliance or suitability.
# NFC-1 capsules of either 50 mg or 200 mg comprising fasoracetam monohydrate as active ingredient and placebo capsules comprising microcellulose were used for the study. The design of the trial was a phone screening (1 day), enrollment phase (1 to 2 days), a wash-out phase for subjects currently on ADHD medications (1-14 days), pharmacokinetic (PK) assessment (2 days), followed by a dose-escalation phase (35 days) and a follow-up phone visit approximately four weeks after the last dose, for a maximum of 127 days. All ADHD medications were discontinued during the wash-out phase prior to the study. The wash-out period for stimulants was 2-3 days and that for atomoxetine or noradrenergic agonists was 10-12 days. No new ADHD medications were started during the study.
# A dose-escalation phase of the trial ran over a 5-week period, after the initial wash-out period and the PK and initial safety assessments. During week 1, all subjects were administered placebo capsules twice daily. After one week of placebo treatment, patients were started on 50 mg bid NFC-1 for 1 week. If safety and responsiveness data from prior dose level of fasoracetam indicated it was appropriate, subjects were then escalated to the next higher dose (100, 200, or 400 mg).
# Of the 30 trial subjects, 3 received a maximum dose of 100 mg, 9 received a maximum dose of 200 mg, and the remaining 18 received a maximum dose of 400 mg.
# [3] = test system: adenylate cyclase activity; settings: Oka 1997; cited from earlier work
# [4] = prior human studies; cited from earlier work
# [5] = test system: group I and group II/III mGluRs; settings: in vitro studies (Hirouchi 2000); cited from earlier work
Structure (SMILES),safety and tolerability ([1]; Phase I-III clinical trials),"effects on psychiatric symptoms ([1]; Phase III data, cerebral infarct patients and adult dementia patients with cerebrovascular diseases)","efficacy in dementia ([1]; Phase III trials, dementia-related cognitive impairment)",OCD symptoms during therapy ([2]; all eight subjects with symptoms of OCD),dermatillomania symptoms ([2]; one subject with OCD and history of ear scratching),bleeding ulcer from ear scratching ([2]; one subject with OCD and history of ear scratching (dermatillomania)),"tics during therapy ([2]; two individuals with history of recurrent tics, 50-400 mg bid dose escalation)",adenylate cyclase activity by stimulating group II and III mGluRs [3],adenylate cyclase activity through activation of group I mGluRs [3],half-life [4],stimulation of mGluRs [5]
"O=C1CC[C@H](C(=O)N2CCCCC2)N1 [NFC-1, fasoracetam monohydrate]",generally safe and well tolerated,beneficial effects,did not show sufficient efficacy,improved,reduced,healed,did not demonstrate tics,,,,
"O=C1CC[C@H](C(=O)N2CCCCC2)N1 [Fasoracetam, fasoracetam]",,,,,,,,may also inhibit adenylate cyclase activity,may stimulate adenylate cyclase activity,5 to 6.5 h,can stimulate both group I and group II/III mGluRs
